Experiments:
Format in all cases: cell-based
SMN2 CJ mRNA = test: Gene panel canonical junction qPCR assay, SMN2; conditions: decrease in CJ mRNA levels, RT-qPCR
Summary of the method: (§1)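 A673 or K562 cells treated 24 h at 37 °C with 11-point 3-fold dilutions (top 10 uM final, DMSO ≤0.25%); lysates analysed by one-step RT-qPCR for canonical-junction mRNA. ΔCt vs GAPDH, GUSB or PPIA housekeeper, normalised to DMSO (ΔΔCt), converted to RQ via 2^(−ΔΔCt) and percentage response.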

HTT CJ mRNA = test: Gene panel canonical junction qPCR assay, HTT; conditions: decrease in CJ mRNA levels, RT-qPCR
Summary of the method: as §1

Target C CJ mRNA = test: Gene panel canonical junction qPCR assay, Target C; conditions: decrease in CJ mRNA levels, RT-qPCR
Summary of the method: as §1

HTT mRNA = test: RT-qPCR splicing assay for HTT mRNA isoforms (canonical junction CJ and alternative junction AJ); conditions: A673 or K562 cell line, 24 hours compound treatment; for IC50: decrease in CJ mRNA; for AC50: increase in AJ mRNA
Summary of the method: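 A673 (DMEM, 10% FBS) or K562 (IMDM, 10% FBS) cells were treated 24 h at 37 °C with an 11-point 3-fold series, top dose 10 uM, DMSO ≤0.25%. In lysates, HTT CJ and AJ isoforms were quantified by one-step RT-qPCR and normalized to PPIA (A673) or GAPDH/GUSB (K562), at least in duplicate.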

Row | SMILES | IC50 (SMN2 CJ mRNA) | IC50 (HTT CJ mRNA) | IC50 (Target C CJ mRNA) | IC50 (HTT mRNA) | AC50 (HTT mRNA)
1 | CC1(C)CC(Oc2ccc3c(n2)OCc2cc(-n4cccn4)ccc2-3)CC(C)(C)N1 [Compound 171] | 100 to 1000 nM | 1000 to 10000 nM | 1000 to 10000 nM | 1000 to 10000 nM | 1000 to 10000 nM
2 | c1cnn(-c2ccc3c(c2)COc2nc(N4CCC5(CCNC5)CC4)ccc2-3)c1 [Compound 184] | 1000 to 10000 nM | 1000 to 10000 nM | 1000 to 10000 nM | 1000 to 10000 nM | 1000 to 10000 nM
3 | CN(c1ccc2c(n1)OCc1cc(-c3ccn(C)c(=O)c3)ccc1-2)[C@@H]1C[C@H]2CC[C@@H](C1)N2 [Compound 153] | < 100 nM | < 100 nM | < 100 nM | < 100 nM | < 100 nM
4 | CN(c1ccc2c(n1)COc1cc(-c3cn[nH]c3)ccc1-2)[C@@H]1C[C@H]2CC[C@@H](C1)N2 [Compound 121, (1R,3S,5S)—N-methyl-N-[8-(1H-pyrazol-4-yl)-5H-chromeno[3,4-b]pyridin-3-yl]-8-azabicyclo[3.2.1]octan-3-amine] | 100 to 1000 nM | 100 to 1000 nM | 100 to 1000 nM | 100 to 1000 nM | 100 to 1000 nM
5 | CN(c1ccc2c(n1)OCc1cc(-n3cccn3)ccc1-2)[C@@H]1C[C@H]2CCC[C@@H](C1)N2 [Compound 178] | < 100 nM | < 100 nM | 100 to 1000 nM | < 100 nM | < 100 nM
6 | c1cnn(-c2ccc3c(c2)COc2nc(N4CC5(CCNCC5)C4)ccc2-3)c1 [Compound 167] | > 10000 nM | > 10000 nM | > 10000 nM | > 10000 nM | > 10000 nM
7 | c1cnn(-c2ccc3c(c2)COc2nc(OC4CCNCC4)ccc2-3)c1 [Compound 187] | 1000 to 10000 nM | 1000 to 10000 nM | > 10000 nM | 1000 to 10000 nM | > 10000 nM
8 | CN(c1ccc2c(n1)OCc1cc(-c3ccc(=O)n(C)c3)ccc1-2)[C@@H]1C[C@H]2CC[C@@H](C1)N2 [Compound 158] | 100 to 1000 nM | 100 to 1000 nM | 100 to 1000 nM | 100 to 1000 nM | 100 to 1000 nM
9 | CN(c1ccc2c(n1)OCc1cc(-c3cn[nH]c3)ccc1-2)C1CC(C)(C)NC(C)(C)C1 [Compound 147, N,2,2,6,6-pentamethyl-N-[8-(1H-pyrazol-4-yl)-6H-isochromeno[3,4-b]pyridin-3-yl]piperidin-4-amine] | > 10000 nM | 100 to 1000 nM | 100 to 1000 nM | 100 to 1000 nM | 100 to 1000 nM
10 | c1cnn(-c2ccc3c(c2)COc2nc(NC4CCNCC4)ccc2-3)c1 [Compound 174] | 1000 to 10000 nM | > 10000 nM | > 10000 nM | > 10000 nM | > 10000 nM
11 | CN(c1ccc2c(n1)OCc1cc(-n3cccn3)ccc1-2)[C@H]1C[C@]2(C)CC[C@](C)(C1)N2 [Compound 180] | < 100 nM | < 100 nM | 100 to 1000 nM | < 100 nM | < 100 nM
12 | c1cnn(-c2ccc3c(c2)COc2nc(N(C4CCNCC4)C4CC4)ccc2-3)c1 [Compound 202] | > 10000 nM | 1000 to 10000 nM | > 10000 nM | 1000 to 10000 nM | > 10000 nM
13 | c1cnn(-c2ccc3c(c2)COc2nc(N4CC5(CCCNC5)C4)ccc2-3)c1 [Compound 168] | > 10000 nM | > 10000 nM | > 10000 nM | > 10000 nM | > 10000 nM
14 | Cc1ncc(-c2ccc3c(c2)COc2nc(N(C)[C@@H]4C[C@H]5CC[C@@H](C4)N5)ccc2-3)o1 [Compound 155] | < 100 nM | < 100 nM | 100 to 1000 nM | < 100 nM | < 100 nM
15 | CN1C[C@@H]2[C@H](C1)[C@H]2N(C)c1ccc2c(n1)OCc1cc(-n3cccn3)ccc1-2 [Compound 196] | > 10000 nM | > 10000 nM | > 10000 nM | > 10000 nM | > 10000 nM
16 | c1cnn(-c2ccc3c(c2)COc2nc(N4CCNCC4)ccc2-3)c1 [Compound 173] | 1000 to 10000 nM | > 10000 nM | > 10000 nM | > 10000 nM | > 10000 nM
17 | CN(c1ccc2c(n1)OCCc1cc(-c3cn[nH]c3)ccc1-2)[C@@H]1C[C@H]2CC[C@@H](C1)N2 [Compound 146] | > 10000 nM | 1000 to 10000 nM | > 10000 nM | 1000 to 10000 nM | 1000 to 10000 nM
18 | CN(c1ccc2c(n1)OCc1cc(-n3ccnn3)ccc1-2)[C@@H]1C[C@H]2CC[C@@H](C1)N2 [Compound 152] | < 100 nM | 100 to 1000 nM | 100 to 1000 nM | 100 to 1000 nM | < 100 nM
19 | CN(c1ccc2c(n1)OCc1cc(-n3cccn3)ccc1-2)C1CC(C)(C)NC(C)(C)C1 [Compound 148, N,2,2,6,6-pentamethyl-N-[8-(pyrazol-1-yl)-6H-isochromeno[3,4-b]pyridin-3-yl]piperidin-4-amine] | 100 to 1000 nM | 1000 to 10000 nM | 1000 to 10000 nM | 1000 to 10000 nM | 1000 to 10000 nM
20 | CN(c1ccc2c(n1)OCc1cc(-c3cn[nH]c3)ccc1-2)[C@@H]1C[C@H]2CC[C@@H](C1)N2 [Compound 108, (1R,5S)—N-Methyl-N-[8-(1H-pyrazol-4-yl)-6H-isochromeno[3,4-b]pyridin-3-yl]-8-azabicyclo [3.2.1] octan-3-amine] | < 100 nM | < 100 nM | < 100 nM | < 100 nM | < 100 nM
21 | c1cnn(-c2ccc3c(c2)COc2nc(N[C@@H]4C[C@H]5CCC[C@@H](C4)N5)ccc2-3)c1 [Compound 190] | < 100 nM | < 100 nM | 100 to 1000 nM | < 100 nM | 100 to 1000 nM
22 | CN(c1ccc2c(n1)OCc1cc(-c3ccc(=O)[nH]c3)ccc1-2)[C@@H]1C[C@H]2CC[C@@H](C1)N2 [Compound 157] | 100 to 1000 nM | 1000 to 10000 nM | 1000 to 10000 nM | 1000 to 10000 nM | 1000 to 10000 nM
23 | c1cnn(-c2ccc3c(c2)COc2nc(N4CCC5(CCCNC5)C4)ccc2-3)c1 (stereo not drawn) [Compound 183] | 100 to 1000 nM | > 10000 nM | > 10000 nM | > 10000 nM | > 10000 nM
24 | c1cnn(-c2ccc3c(c2)COc2nc(N4C[C@H]5CNC[C@H]5C4)ccc2-3)c1 [Compound 185] | 1000 to 10000 nM | > 10000 nM | > 10000 nM | > 10000 nM | > 10000 nM

Reference: patent publication US20230148184A1, “COMPOUNDS AND METHODS FOR MODULATING SPLICING” (REMIX THERAPEUTICS INC., priority 2020, published 2023)
